The nature of this data set: CMC via the Wilhelmy plate technique. Type of data set: physicochemical. The method, then: Not to be bound by theory, surfactants with low CMC values tend to be more mild to enzymes based on low monomer concentrations in solution which interfere with enzyme stability. The measured CMC, via the Wilhelmy plate technique, of SHP is 30 mg/L while that of the sodium salt of AES is 80 mg/L and NaLAS is 900 mg/L.

CMC data for one substance are collected here from patent EP2277860B1, “Compositions comprising sulfonated estolides and alkyl ester sulfonates, methods of making them, and compositions and processes employing them” (STEPAN COMPANY, priority 2009, dated 2011).

The substance “linear alkylbenzene sulfonic acid, sodium salt [NaLAS]” gave a CMC of 900 mg/L.
